Test results from patent US20040014676A1, “SRC kinase inhibitors useful for treating osteoporosis” (priority 2001, published 2004).

These compounds were tested against T1, Src kinase (Homo sapiens, UniProt P12931) (assay: Phosphorylation assay of Src kinase inhibitors (radiometric, 96 well filter plate)). Conditions: duplicates, tested in the range of 400-0.098 µM; 10 µM peptide substrate (FIYGAFKKKKNH2), 5 µM unlabeled ATP, room temperature 30 min; read-out: IC50.
T1 construct: purchased Upstate Bioteolnology (sic; Upstate Biotechnology); later HMR stock 27597-019E1 #14-117
T1 sequence (P12931 whole entry): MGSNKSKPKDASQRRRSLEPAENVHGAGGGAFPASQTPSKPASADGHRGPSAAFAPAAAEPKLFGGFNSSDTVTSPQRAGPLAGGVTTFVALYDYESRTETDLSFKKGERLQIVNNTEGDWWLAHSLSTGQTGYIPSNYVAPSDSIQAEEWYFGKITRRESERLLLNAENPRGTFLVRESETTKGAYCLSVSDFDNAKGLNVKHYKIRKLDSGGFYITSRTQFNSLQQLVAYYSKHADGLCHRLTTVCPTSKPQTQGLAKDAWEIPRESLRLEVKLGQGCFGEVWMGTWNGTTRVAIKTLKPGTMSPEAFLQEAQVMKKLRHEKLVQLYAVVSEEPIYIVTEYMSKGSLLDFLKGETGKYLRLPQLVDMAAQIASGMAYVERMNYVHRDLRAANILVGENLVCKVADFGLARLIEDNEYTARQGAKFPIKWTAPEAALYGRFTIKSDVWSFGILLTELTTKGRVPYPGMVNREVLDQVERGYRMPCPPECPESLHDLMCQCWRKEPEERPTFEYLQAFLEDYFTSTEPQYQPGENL
Assay type: biochemical
Description: The present invention provides novel compounds of Formulae I through XVIII discussed above. The following compounds which fall within Formulae I through XVIII are characterized by structure, IUPAC name and activity using phosphorylation assay for protein tyrosine Src kinase.
Phosphorylation Assay of Src Kinase Inhibitors
The activity of Src kinase was measured in a 96 well plate phosphorylation assay where the transfer of gamma phosphate from ATP to peptide substrate was measured radiometrically. […] Ki values were determined experimentally for some of the inhibitors. The phosphocellulose filter plates (Millipore catalog #MAPH NOB) were prewet prior to the phosphorylation assay by addition of 100 1 per well of 30 mM MES buffer+0.4 mg/ml BSA. After a 20-minute incubation, the buffer was removed completely via a Millipore vacuum manifold. The phosphorylation assay was then set up in the filter plates in a total volume per well of 60 1. The 60 1 consisted of compound (see concentration ranges above), a 1:100 dilution of Src kinase (originally Upstate Bioteolnology, #14-117; later HMR stock 27597-019E1) or assay buffer alone (for no enzyme control wells), 10 M peptide substrate (FIYGAFKKKKNH2), 5 M unlabeled ATP and a 1:500 dilution of P-ATP (New England Nuclear, catalog #NEG-602H, 2000 Ci/mmol). The reaction was mixed and incubated at room temperature for 30 min. The kinase reactions were stopped by addition of 150 mM H3PO4 and incubated for 10 minutes. The filter plate wells were filtered and washed seven times with 200 1 per well of 150 mM H3PO4. Finally, the filter plate was placed into a Packard plate adapter (Packard catalog #600517B), 35 1 of Microscint-20 (Packard catalog #6013621) was added to each well, the plate was sealed (TopSeal A sealers; Packard catalog #6005185) and counted on a Packard TopCount.

**Q.** For `NC(=O)CNC(=O)c1cc2ccccc2cc1OCCCCNC(=O)[C@H](Cc1ccc(O)cc1)NC(=O)OCc1ccccc1` [Example 18, 3-[4-[[2(S)-(N-BENZYLOXY- CARBONYL)AMINO-3-(4-HYDROXY- PHENYL)-1-OXOPROPYL]AMINO]- BUTOXY]-NAPHTHALENE-2-[N-(2- AMIDOMETHYL)]CARBOXAMIDE], which IC50 is on record?
**A.** 32 µM

**Q.** With `CCC(C)[C@H](N)C(=O)NC(Cc1ccc(O)cc1)C(=O)NCCCCOc1cc2ccccc2cc1C(=O)NCC(N)=O` (some centres unmarked) [Example 19] as the compound, how does the IC50 read?
**A.** 12 µM

**Q.** For `NC(=O)CNC(=O)c1cc2ccccc2cc1OCCCCNC(=O)C1Cc2ccc(O)cc2CN1` (centres unmarked) [Example 20, 3-[N-[[(7-HYDROXY)-1,2,3,4-TETRA- HYDROISOQUINOLIN-3-YL]- CARBONYL]AMINO]BUTOXY]- NAPHTHALENE-2-[N-(2- AMIDOMETHYL)]CARBOXAMIDE], which IC50 is on record?
**A.** 3.8 µM

**Q.** For `NC(=O)CNC(=O)c1cc2ccccc2cc1OCCCCNC(=O)C1NCCC1c1ccc(O)cc1` [Example 21, 3-[N-[[[(3-(R)4-HYDROXYPHENYL)- TETRAHYDROPYRROL-2-YL]- CARBONYL]AMINO]BUTOXY]- NAPHTHALENE-2-[N-(2- AMIDOMETHYL)]CARBOXAMIDE], which IC50 is on record?
**A.** 4.6 µM

**Q.** With `NC(=O)CNC(=O)c1cc2ccccc2cc1OCCCCNC(=O)C1NCCC1c1ccc(O)cc1` [Example 22, 3-[N-[[[(3-(S)4-HYDROXYPHENYL)- TETRAHYDROPYRROL-2-YL]- CARBONYL]AMINO]BUTOXY]- NAPHTHALENE-2-[N-(2- AMIDOMETHYL)]CARBOXAMIDE] as the compound, how does the IC50 read?
**A.** 11 µM

**Q.** With `NCCCCOc1cc2ccccc2cc1C(=O)NCC(N)=O` [Example 26, 3-(4-AMINOBUTOXY)-NAPHTHALENE- 2-[N-ACETAMIDO]CARBOXAMIDE] as the compound, how does the IC50 read?
**A.** 25 µM

**Q.** How did the IC50 turn out when `NC(=O)CNC(=O)c1cc2ccccc2cc1NC(=O)CCCNC(=O)[C@@H](N)Cc1ccc(O)cc1` [Example 34, 3-[[[[[[2(S)-AMINO-3-(4-HYDROXY- PHENYL)-1-OXO]PROPYL]AMINO]- PROPYL]CARBONYL] AMINO]- NAPHTHALENE-2-(N-ACETAMIDO)- CARBOXAMIDE] was run?
**A.** 252 µM

**Q.** Which IC50 does the source give for `NC(=O)CNC(=O)c1cc2ccccc2cc1NC(=O)CCCCNC(=O)[C@@H](N)Cc1ccc(O)cc1` [Example 35, 3-[[[[[[2(S)-AMINO-3-(4-HYDROXY- PHENYL)-1-OXO]PROPYL]AMINO]- BUTYL]CARBONYL] AMINO]- NAPHTHALENE-2-(N- ACETAMIDO)CARBOXAMIDE] here?
**A.** 209 µM

**Q.** `NC(=O)CNC(=O)c1cc2ccccc2cc1OCCCCNC(=O)[C@@H](N)CCc1ccccc1` [Example 36, 3-[[4-[(2(S)-AMINO-3-(BENZYL-1- OXO)PROPYL]AMINO]BUTOXY]- NAPHTHALENE-2-(N- ACETAMIDO)CARBOXAMIDE] was tested. Which IC50 did it give?
**A.** 7.9 µM

**Q.** Which IC50 does the source give for `NC(=O)CNC(=O)c1cc2ccccc2cc1OCCCCNC(=O)[C@@H](N)c1ccccc1` [Example 37, 3-[[4-[(2(S)-AMINO-2-PHENYL-1- OXO)ETHYL]AMINO]BUTOXY]- NAPHTHALENE-2-(N- ACETAMIDO)CARBOXAMIDE] here?
**A.** 3.3 µM

**Q.** How did the IC50 turn out when `NC(=O)CNC(=O)c1cc2ccccc2cc1OCCCCNC(=O)[C@@H](N)Cc1ccc(-c2ccccc2)cc1` [Example 38, 3-[[4-[[2(S)-AMINO-3-(BIPHEN-1-YL)-1- OXO]PROPYL]AMINO]BUTOXY]- NAPHTHALENE-2-(N- ACETAMIDO)CARBOXAMIDE] was run?
**A.** 30 µM

**Q.** How did the IC50 turn out when `NC(=O)CNC(=O)c1cc2ccccc2cc1OCCCCNC(=O)[C@@H](N)C(c1ccccc1)c1ccccc1` [Example 39, 3-[[4-[(2(S)-AMINO-3,3-BISPHENYL-1- OXO)PROPYL]AMINO]BUTOXY]- NAPHTHALENE-2-(N-ACETAMIDO)- CARBOXAMIDE] was run?
**A.** 1.7 µM

**Q.** How did the IC50 turn out when `NC(=O)CNC(=O)c1cc2ccccc2cc1OCCCCNC(=O)C1(N)Cc2ccccc2C1` [Example 40, 3-[4-[n-[1-OXO-2-(2-AMINOINDAN-2- YL)]ETHYL]-AMINOBUTOXY]- NAPHTHALENE-2-(N- ACETAMIDO)CARBOXAMIDE] was run?
**A.** 12 µM

**Q.** For `NC(=O)CNC(=O)c1cc2ccccc2cc1OCCCCNC(=O)[C@@H](N)Cc1ccc(F)cc1` [Example 41, 3-[[4-[[2(S)-AMINO-3-(4-FLUORO- PHENYL)-1-OXO]PROPYL]AMINO]- BUTOXY]-NAPHTHALENE-2- (N-ACETAMIDO)CARBOXAMIDE], which IC50 is on record?
**A.** 0.31 µM
